Patent US20110183975A1, “NOVEL 6-AZAINDOLE AMINOPYRIMIDINE DERIVATIVES HAVING NIK INHIBITORY ACTIVITY” (priority 2008, published 2011)

Legend:
[1] = target: T1, human ROCK2 catalytic domain (Homo sapiens, UniProt O75116); assay: ROCK2 inhibitory activity: peptide phosphorylation, IMAP fluorescence polarization; format: biochemical; details: for IC50: His-tagged human ROCK2, 100 nM peptide substrate, 5 μM ATP, 30° C., 150 minutes; for Selectivity of NIK over ROCK2: IC50 for ROCK2 divided by IC50 for NIK
T1 construct: made in house; host or cells: Sf9 insect cells
Excerpt: cDNA of N-terminal His-tagged human ROCK2 catalytic domain [11-552 amino acids of accession number NP_00004841.2] was integrated into an expression vector, which was then highly expressed in sf9 cells. The sf9 cells were harvested and lysed, and then the His-tagged human ROCK2 protein was applied onto HisTrap HP (GE Healthcare) and eluted from the column with imidazole. The active fractions were desalted with a desalting column (PD-10, GE Healthcare) to give a purified enzyme.
For measurement of the activity of ROCK2, the substrate used was a synthetic peptide (5-FAM (5-carboxyfluorescein)-Ala-Lys-Arg-Arg-Arg-Leu-Ser-Ser-Leu-Arg-Ala-OH) (SEQ.ID.NO.:2) (Trauger J W. et. al, Biochemistry, 41, 8948-8953 (2002)), which was custom-made by JPT Peptide Technologies GmbH.
For detection of phosphorylation of the substrate, IMAP® technology (Molecular Devices, Co. Ltd.) (Gaudet E W. et. al, J. Biomol. Screen, 8, 164-175(2003)) was used.
The phosphorylation reaction was conducted using 384 well plate, and the reaction volume was 10.5 μL/well. The reaction buffer is comprised of 50 mM Tris-chloride buffer (pH 7.5), 10 mM magnesium acetate, 1 mM O,O′-Bis(2-aminoethyl)ethyleneglycol-N,N,N′,N′-tetraacetic acid (EGTA) and 1 mM dithiothreitol. Thereto, the purified ROCK2 protein, 100 nM of the peptide substrate, and 5 μM of adenosine 5′-triphosphate were added, and then the reaction was carried out at 30° C. for 150 minutes.
Thereafter, in order to terminate and detect the reaction, 30 μL of the IMAP (registered trademark) binding reagent (IMAP Progressive Binding Reagent) that had been diluted (1:500) in the 1× IMAP binding buffer A (IMAP Progressive Binding Buffer A, 5× stock) was added to each well. The solution stood still for 30 minutes in the dark, and then fluorescence polarization was measured using a high-end microplate reader (excitation wavelength: 485 nm; emission wavelength: 520 nm).
The compound to be tested was diluted in dimethylsulfoxide (DMSO) and then 0.5 μL of this solution was added to each well. Each control well was provided by adding 0.5 μL of DMSO to the well in place of the DMSO solution containing the compound to be tested. In Table 3, the selectivity of NIK over ROCK2 was calculated by dividing the value of IC50 for ROCK2 by the value of IC50 for NIK.

Truncated human NIK = target: T2, Truncated human NIK (Homo sapiens, UniProt Q99558); assay: NIK inhibitory activity: SRPKtide phosphorylation with [γ-33P] ATP, filter plate; format: biochemical; details: GST-tagged truncated human NIK, 20 μM peptide substrate, 10 μM ATP, 25° C., 240 minutes
T2 construct: made in house; host or cells: Sf9 insect cells (baculovirus)
Excerpt: Truncated human NIK [319-947(end) amino acids of accession number AAH35576] was expressed in sf9 cells as N-terminus gluthatione-S-transferase (GST)-tagged protein using baculovirus expression system. The sf9 cells were harvested and lysed, and then the GST-tagged human NIK protein was applied onto a glutathione column (GSTrap, GE Healthcare) and eluted from the column with reduced glutathione. The active fractions were desalted with a desalting column (PD-10, GE Healthcare) to give a purified enzyme.
For measurement of the activity of NIK, the SRPKtide peptide (Arg-Ser-Arg-Ser-Arg-Ser-Arg-Ser-Arg-Ser-Arg-Ser-Arg-Ser-Arg-NH2) (SEQ.ID.NO.:1) was synthesized as a substrate, as described above.
The phosphorylation reaction was conducted using 384 well plate, and the reaction volume was 10.5 μL/well. The reaction buffer is comprised of 10 mM 3-Morpholinopropanesulfonic acid buffer (pH 7.4), 5 mM magnesium chloride, 1 mM O,O′-Bis (2-aminoethyl) ethyleneglycol-N,N,N′,N′-tetraacetic acid (EGTA) and 1 mM dithiothreitol. Thereto, the purified NIK protein, 20 μM of the peptide substrate, 10 μM of adenosine 5′-triphosphate (ATP) and 0.5 μCi [γ-33P] ATP solution were added, and then the reaction was carried out at 25° C. for 240 minutes. The [γ-33P]-labeled ATP was purchased from PerkinElmer Inc.
After the termination of the reaction by adding 20 μL of 350 mM phosphoric acid (H3PO4), the substrate peptide was adsorbed on a filter plate (Millipore Multiscreen, MZPHN0W50). The substrate-bound filter plate was washed with 130 mM phosphoric acid for several times and then 8 μL of Microscinti-O (PerkinElmer Inc.) was added to the each well. The radiation activity of the peptide was measured with TopCount NXT Microscintillation Counter (PerkinElmer Inc.).
The compound to be tested was diluted in dimethylsulfoxide (DMSO) and then 0.5 μL of this solution was added to each well. Each control well was provided by adding 0.5 μL of DMSO to the well in place of the DMSO solution containing the compound to be tested.

[2] = target: T3, human NIK (U-2 OS Tet-On-NIK cells) (Homo sapiens, UniProt Q99558); assay: Cellular NIK inhibitory activity using ELISA-based IKKalpha phosphorylation assay; format: cell-based; details: NIK dependent IKKalpha phosphorylation, doxycycline 2 micrograms/ml, 24 hours
T3 construct: expressed in transfected cells; host or cells: U-2 OS Tet-On cells carrying NF-kappa B reporter genes, stably transfected with pTRE2hyg-NIK
Experimental: NF-kappa B reporter genes (Clontech Laboratories, Inc.) was introduced into U-2 OS Tet-On cell line (Clontech Laboratories, Inc.) by the co-transfection with puromycin resistance gene (Clontech Laboratories, Inc.). […] NIK protein expression in this established cells (U-2 OS Tet-On-NIK) was controlled in a doxycycline dependent manner. The cells were cultured in DMEM containing 10% FBS, 100 units/ml of penicillin, 0.1 mg of streptomycin sulfate, 100 microgram/ml of hygromycin and 1 microgram/ml of puromycin (Growth medium).
U-2 OS Tet-On-NIK cells were plated on 96-well plate (Nunc) at 20000 cells per well and were incubated overnight at 37° C. in 5% CO2-95% air. The tested compound was diluted in dimethylsulfoxide (DMSO) and further diluted with a growth medium. Then the compound solution and doxycycline (Clontech Laboratories, Inc.) solution (final working concentration is 2 micrograms/ml) were simultaneously added to the each well. […]
Rabbit anti-IKKalpha [pSpS176/180] phosphospecific antibody (Biosource International, Inc.) or rabbit anti-IKKalpha antibody (Abcam, Inc.) was incubated on wells of an MAXISORP ELISA plate (Nunc) at 4° C. for overnight. […] After stopping HRP-reactions (SureBlue Reserve™ TMB substrate, Kirkegaard & Perry Laboratories, Inc.) by 1N hydrochloric acid, the optical density in each well was determined using a SpectraMax Plus 384 (Molecular Devices Corporation) at 450 nm.
Cellular NIK inhibitory activity of the test compound was represented as IC50 value determined by the following procedure.
Optical density of phospho-IKKalpha in each sample was normalized using the ratio of phospho-IKKalpha to total IKKalpha. The % of Control value was calculated by the following equation. […]
Then the IC50 value for NIK dependent IKKalpha phosphorylation was determined.

T3 sequence (Q99558 whole entry): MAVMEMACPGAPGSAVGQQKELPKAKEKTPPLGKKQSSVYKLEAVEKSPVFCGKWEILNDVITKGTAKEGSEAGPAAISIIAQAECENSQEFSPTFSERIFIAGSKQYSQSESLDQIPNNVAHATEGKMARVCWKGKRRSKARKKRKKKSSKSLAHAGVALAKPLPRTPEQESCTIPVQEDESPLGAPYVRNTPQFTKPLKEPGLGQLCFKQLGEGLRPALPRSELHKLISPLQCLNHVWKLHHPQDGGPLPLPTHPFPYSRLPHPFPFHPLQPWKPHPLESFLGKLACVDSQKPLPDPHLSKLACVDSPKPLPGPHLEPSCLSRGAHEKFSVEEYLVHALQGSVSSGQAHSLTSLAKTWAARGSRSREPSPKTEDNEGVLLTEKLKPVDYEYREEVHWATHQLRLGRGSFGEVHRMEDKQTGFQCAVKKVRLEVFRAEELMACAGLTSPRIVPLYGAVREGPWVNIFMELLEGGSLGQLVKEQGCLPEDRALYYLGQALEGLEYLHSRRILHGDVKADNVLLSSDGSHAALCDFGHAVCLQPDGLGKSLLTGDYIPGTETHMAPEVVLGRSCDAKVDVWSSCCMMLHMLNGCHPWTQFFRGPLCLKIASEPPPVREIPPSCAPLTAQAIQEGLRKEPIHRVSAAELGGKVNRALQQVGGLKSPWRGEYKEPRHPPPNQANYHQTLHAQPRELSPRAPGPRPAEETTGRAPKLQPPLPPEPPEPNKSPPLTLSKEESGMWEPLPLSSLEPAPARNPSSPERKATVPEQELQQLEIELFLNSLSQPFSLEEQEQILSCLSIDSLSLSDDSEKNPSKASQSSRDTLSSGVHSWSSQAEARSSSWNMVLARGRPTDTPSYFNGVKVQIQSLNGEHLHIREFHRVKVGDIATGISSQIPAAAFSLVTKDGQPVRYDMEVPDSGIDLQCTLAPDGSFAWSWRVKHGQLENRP
T2 sequence (Q99558 319-947): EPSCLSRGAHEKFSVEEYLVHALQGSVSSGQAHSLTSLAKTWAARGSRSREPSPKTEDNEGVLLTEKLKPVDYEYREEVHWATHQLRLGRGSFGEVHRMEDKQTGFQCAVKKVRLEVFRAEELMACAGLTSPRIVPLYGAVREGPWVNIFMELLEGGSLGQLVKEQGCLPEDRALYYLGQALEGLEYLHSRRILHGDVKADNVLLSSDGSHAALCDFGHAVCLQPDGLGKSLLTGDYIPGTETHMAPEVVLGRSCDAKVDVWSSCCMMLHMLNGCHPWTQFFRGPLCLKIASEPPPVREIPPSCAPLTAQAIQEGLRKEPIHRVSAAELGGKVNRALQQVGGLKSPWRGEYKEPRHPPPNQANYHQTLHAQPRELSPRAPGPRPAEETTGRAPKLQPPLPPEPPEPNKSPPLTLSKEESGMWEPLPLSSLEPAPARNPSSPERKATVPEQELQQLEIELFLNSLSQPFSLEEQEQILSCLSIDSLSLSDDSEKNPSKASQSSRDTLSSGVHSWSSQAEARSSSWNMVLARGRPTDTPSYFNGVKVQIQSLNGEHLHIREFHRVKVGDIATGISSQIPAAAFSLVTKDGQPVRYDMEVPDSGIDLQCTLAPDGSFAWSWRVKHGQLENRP
T1 sequence (O75116 11-552): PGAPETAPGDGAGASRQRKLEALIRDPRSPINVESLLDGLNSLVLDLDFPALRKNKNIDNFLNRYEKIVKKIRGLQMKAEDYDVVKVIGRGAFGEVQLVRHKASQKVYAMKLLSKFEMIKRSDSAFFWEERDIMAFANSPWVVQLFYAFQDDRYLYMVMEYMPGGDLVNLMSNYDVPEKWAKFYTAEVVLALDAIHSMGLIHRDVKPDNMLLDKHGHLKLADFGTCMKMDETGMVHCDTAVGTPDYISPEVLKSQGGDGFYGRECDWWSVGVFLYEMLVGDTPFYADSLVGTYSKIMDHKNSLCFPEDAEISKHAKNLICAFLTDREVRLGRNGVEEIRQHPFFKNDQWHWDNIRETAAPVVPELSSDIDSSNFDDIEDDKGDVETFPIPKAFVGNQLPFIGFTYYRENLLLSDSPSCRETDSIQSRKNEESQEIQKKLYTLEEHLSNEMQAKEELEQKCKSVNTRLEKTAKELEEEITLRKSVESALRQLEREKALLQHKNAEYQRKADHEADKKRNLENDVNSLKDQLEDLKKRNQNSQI

IC50 [1] [nM]	Selectivity of NIK over ROCK2 [1]	IC50 (Truncated human NIK) [nM]	IC50 [2] [nM]	SMILES
1010	11.9	84.5	230	CC(C)n1cc(-c2ccnc(Nc3cc(C(N)=O)ccc3OCc3ccccc3)n2)c2ccncc21 [Example 94, 4-Benzyloxy-3-[4-(1-isopropyl-1H-pyrrolo[2,3-c]pyridin-3-yl)-pyrimidin-2-ylamino]-benzamide]
4520	173.3	26.1	200	CNC(=O)c1ccc(OC)c(Nc2nccc(-c3cn(C(C)C)c4cnccc34)n2)c1 [Example 71, 3-[4-(1-Isopropyl-1H-pyrrolo[2,3-c]pyridin-3-yl)-pyrimidin-2-ylamino]-4-methoxy-N-methyl-benzamide]
2590	40.9	63.4	140	Cc1ccc(C(N)=O)cc1Nc1nccc(-c2cn(C(C)C)c3cnccc23)n1 [Example 85, 3-[4-(1-Isopropyl-1H-pyrrolo[2,3-c]pyridin-3-yl)-pyrimidin-2-ylamino]-4-methyl-benzamide]

SMILES	IC50 [1] [nM]	Selectivity of NIK over ROCK2 [1]	IC50 (Truncated human NIK) [nM]	IC50 [2] [nM]
CC(C)n1cc(-c2ccnc(Nc3ccccc3)n2)c2ccncc21 [Example 3, [4-(1-Isopropyl-1H-pyrrolo[2,3-c]pyridin-3-yl)-pyrimidin-2-yl]-phenyl-amine]	86	0.20	423	–
